Structures are written as SMILES.

This is an account of results in US11865101B2, “Cromolyn metal complexes as enhanced pharmaceutical formulations and method of preparing the same” (University of Puerto Rico, priority 2020, dated 2024).

A short description of data set [1]: Dissolution / stability in FaSSGF (pH 1.60) at 37° C. The conditions noted are these: FaSSGF pH=1.60, 37° C. The class given is physicochemical. How it is done:
Dissolution profiles—Dissolution profiles were recorded for CS, Cromolyn-Zn, Cromolyn-Mg, and Cromolyn-Ca and quantified by measuring absorbance at 237 nm against a reagent blank containing the buffered media. Dissolution tests were performed in a PBS buffer (pH=7.40) and FaSSGF (pH=1.60) at 37° C. under constant stirring (150 rpm). Absorbance measurements were performed on an Agilent Technologies Cary Series UV-Vis Spectrophotometer, Cary 100 UV-Vis model; using the UV Cary Scan software version v.20.0.470.
The stability of these materials in biologically relevant media was used to understand the ability of the pMCs to sustain blood plasma concentration for CS. A higher blood concentration might allow for longer circulation times and adequate delivery to the target tissues and organs. This is currently a pharmacological disadvantage for oral formulations of CS (<1% bioavailability and low solubility ˜100.0 mg/mL at 20° C.). […] Therefore, no further dissolution studies were carried out in this media.

Data set [2] in a line: Dissolution profile in PBS (pH 7.40) at 37° C., UV absorbance at 237 nm. The class given is physicochemical. The conditions noted are these: PBS pH=7.40, 37° C., 150 rpm, after 1 hr. How it is done: Dissolution profiles—Dissolution profiles were recorded for CS, Cromolyn-Zn, Cromolyn-Mg, and Cromolyn-Ca and quantified by measuring absorbance at 237 nm against a reagent blank containing the buffered media. Dissolution tests were performed in a PBS buffer (pH=7.40) and FaSSGF (pH=1.60) at 37° C. under constant stirring (150 rpm). Absorbance measurements were performed on an Agilent Technologies Cary Series UV-Vis Spectrophotometer, Cary 100 UV-Vis model; using the UV Cary Scan software version v.20.0.470. Stock Solution: A standard stock solution of CS was prepared by dissolving 10 mg in a 100 mL (0.1 mg/mL) volumetric flask and completing to volume with PBS. Dilute solutions were obtained by appropriate dilution of this stock solution. […] PBS was used as the solvent. The absorbance of CS was measured at maximum absorption wavelength (λmax) of 237 nm against a solvent blank (PBS). […] Dissolution profiles were recorded for CS, Cromolyn-Zn, Cromolyn-Mg, and Cromolyn-Ca. […] The absorbance of CS was measured at 237 nm against the solvent blank. […] Absorbance measurements were performed on an Agilent Technologies Cary Series UV-Vis Spectrophotometer, Cary 100 UV-Vis; using the UV Cary Scan software version v.20.0.470. […] The absorbance was measured at the maximum wavelength (λmax=237 nm) for CS as the degradation of the pMCs progressed in PBS over time. […]

The conditions of data set [3]: orally administered, absorption from the gastrointestinal tract; cited from earlier work.
For data set [4] the following is noted: at 20° C.; cited from earlier work.
For data set [5] the following is noted: noted by others; above it CS forms supramolecular aggregates; cited from earlier work.

With `O=C(O)c1cc(=O)c2c(OCC(O)COc3cccc4oc(C(=O)O)cc(=O)c34)cccc2o1` [CS, cromolyn sodium], the “dissolution / degradation in FaSSGF” value in data set [1] is reported as “no detectable dissolution”. For the same compound, in data set [2], the “maximum concentration of CS dissolved” value is given as around 98%. Moreover, the bioavailability in data set [3] was below 1%. In addition, the solubility in data set [4] was around 100.0 mg/mL. In addition, in data set [5], the critical self-association concentration was 10.00 mg/mL.

The bioavailability is dose-corrected exposure relative to a reference, in per cent. Usually solubility stands for how much of the substance goes into solution per volume.
